Data as given in paper PMC9974930 (Journal of medicinal chemistry, 2023).

These molecules were tested on CFA-induced AIA mice (assay: CFA-induced arthritis). Settings: 10 mg / kg ip.
Assay type: in vivo, Kunming mice

Cc1ccc(-c2cc(C(F)(F)F)nn2-c2ccc(S(N)(=O)=O)cc2)cc1 [celecoxib, reference compound] was tested, and the “reduced foot swelling, thickness” value was 17.99%.

With Cc1ccc(-c2cc(C(F)(F)F)nn2-c2ccc(S(N)(=O)=O)cc2)cc1 [celecoxib, reference compound] the “reduced foot swelling, width” value was 6.4%.

Same assay, conditions: 10 mg / kg ip, 24 h of drug treatment

With Cc1ccc(-c2cc(C(F)(F)F)nn2-c2ccc(S(N)(=O)=O)cc2)cc1 [celecoxib, reference compound] the body weight change was “increase in body weight”.

Same assay, conditions: 10 mg / kg ip, hot plate

In the case of Cc1ccc(-c2cc(C(F)(F)F)nn2-c2ccc(S(N)(=O)=O)cc2)cc1 [celecoxib, reference compound], the “effect on pain threshold, in words” value is reported as “did not significantly raise the pain threshold at 2 h”.

The molecules below were run against T1, recombinant human sEH (HsEH) (Homo sapiens, UniProt P34913) (assay: biochemical). Settings: not given.
T1 sequence (P34913 1-555): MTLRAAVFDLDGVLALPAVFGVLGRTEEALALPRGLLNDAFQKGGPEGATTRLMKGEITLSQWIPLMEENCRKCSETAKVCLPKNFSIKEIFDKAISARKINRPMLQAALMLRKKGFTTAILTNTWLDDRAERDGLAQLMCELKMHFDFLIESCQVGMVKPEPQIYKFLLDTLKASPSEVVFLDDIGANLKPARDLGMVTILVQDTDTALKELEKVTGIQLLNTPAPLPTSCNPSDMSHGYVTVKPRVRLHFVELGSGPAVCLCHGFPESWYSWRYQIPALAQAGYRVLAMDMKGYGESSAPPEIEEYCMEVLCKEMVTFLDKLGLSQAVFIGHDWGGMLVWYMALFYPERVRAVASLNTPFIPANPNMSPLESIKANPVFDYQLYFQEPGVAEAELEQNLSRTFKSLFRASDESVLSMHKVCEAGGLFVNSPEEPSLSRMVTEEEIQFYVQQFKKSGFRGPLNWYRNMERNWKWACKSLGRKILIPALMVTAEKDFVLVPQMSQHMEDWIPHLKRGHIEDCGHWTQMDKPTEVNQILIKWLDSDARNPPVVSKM

Point of comparison: CCC(=O)N1CCC(CC(=O)N2CCCN(Cc3ccc(NC(=O)N[C@@]45C[C@@H]6C[C@@](C)(C[C@@](C)(C6)C4)C5)c(F)c3)CC2)CC1 [I2, 1-((1r,3R,5S,7r)-3,5-Dimethyladamantan-1-yl)-3-(2-fluoro-4-((4-(2-(1-propionylpiperidin-4-yl)acetyl)-1,4-diazepan-1-yl)methyl)phenyl)urea], IC50 0.35 nM. Against it:
- C[C@]12C[C@@H]3C[C@](C)(C1)C[C@@](NC(=O)Nc1ccc(C(=O)N4CCCC(C(=O)O)C4)cc1F)(C3)C2 (stereo partly drawn) [A, 1-(4-(3-((1r,3R,5S,7r)-3,5-Dimethyladamantan-1-yl)ureido)-3-fluorobenzoyl)piperidine-3-carboxylic acid] — 11-fold higher, 4 nM

Same assay, conditions: LLE = pIC50-cLogP

Point of comparison: C[C@]12C[C@@H]3C[C@](C)(C1)C[C@@](NC(=O)Nc1ccc(CN4CCCC(C(=O)N(CCO)CCO)C4)cc1F)(C3)C2 (stereo partly drawn) [D5, 1-(4-(3-((1r,3R,5S,7r)-3,5-Dimethyladamantan-1-yl)ureido)-3-fluorobenzyl)-N,N-bis(2-hydroxyethyl)piperidine-3-carboxamide], “LLE (ligand lipophilicity efficiency)” value 6.879. Against it:
- C[C@]12C[C@@H]3C[C@](C)(C1)C[C@@](NC(=O)Nc1ccc(CN4CCC(C(=O)N(CCO)CCO)CC4)cc1F)(C3)C2 [E5, 1-(4-(3-((1r,7r)-3,5-Dimethyladamantan-1-yl)ureido)-3-fluorobenzyl)-N,N-bis(2-hydroxyethyl)piperidine-4-carboxamide] — lower, 5.585
- COC(=O)N1CCC(CC(=O)N2CCCN(Cc3ccc(NC(=O)N[C@@]45C[C@@H]6C[C@@](C)(C[C@@](C)(C6)C4)C5)c(F)c3)CC2)CC1 [I4, Methyl-4-(2-(4-(4-(3-((1r,3R,5S,7r)-3,5-dimethyladamantan-1-yl)ureido)-3-fluorobenzyl)-1,4-diazepan-1-yl)-2-oxoethyl)piperidine-1-carboxylate] — lower, 5.125
- C[C@]12C[C@@H]3C[C@](C)(C1)C[C@@](NC(=O)Nc1ccc(C(=O)NC4CCC(C(=O)N5CCC(CCO)CC5)CC4)cc1F)(C3)C2 (stereo partly drawn) [C2, 4-(3-((1r,3R,5S,7r)-3,5-Dimethyladamantan-1-yl)ureido)-3-fluoro-N-(4-(4-(2-hydroxyethyl)piperidine-1-carbonyl)cyclohexyl)benzamide] — lower, 3.655
- C[C@]12C[C@@H]3C[C@](C)(C1)C[C@@](NC(=O)Nc1ccc(CN4CCCC(C(=O)O)C4)cc1F)(C3)C2 (stereo partly drawn) [D, 1-(4-(3-((1r,3R,5S,7r)-3,5-Dimethyladamantan-1-yl)ureido)-3-fluorobenzyl) piperidine-3-carboxylic acid] — higher, 7.656
- CCC(C)C(=O)N1CCCN(C(=O)C2CCCN(C(=O)c3ccc(NC(=O)N[C@@]45C[C@@H]6C[C@@](C)(C[C@@](C)(C6)C4)C5)c(F)c3)C2)CC1 (stereo partly drawn) [F3, 1-((1r,3R,5S,7r)-3,5-Dimethyladamantan-1-yl)-3-(2-fluoro-4-(3-(4-(2-methylbutanoyl) −1,4-diazepane-1-carbonyl)piperidine-1-carbonyl)phenyl)urea] — lower, 4.847
- CCC(C)C(=O)N1CCC(CC(=O)N2CCCN(Cc3ccc(NC(=O)N[C@@]45C[C@@H]6C[C@@](C)(C[C@@](C)(C6)C4)C5)c(F)c3)CC2)CC1 (stereo partly drawn) [I3, 1-((1r,3R,5S,7r)-3,5-Dimethyladamantan-1-yl)-3-(2-fluoro-4-((4-(2-(1-(2-methylbutanoyl)piperidin-4-yl)acetyl)-1,4-diazepan-1-yl)methyl)phenyl)urea] — lower, 4.337
- C[C@]12C[C@@H]3C[C@](C)(C1)C[C@@](NC(=O)Nc1ccc(CN4CCCC(C(=O)NC(CO)CO)C4)cc1F)(C3)C2 (stereo partly drawn) [D7, N-(1,3-Dihydroxypropan-2-yl)-1-(4-(3-((1r,3R,5S,7r)-3,5-dimethyladamantan-1-yl)ureido)-3-fluorobenzyl)piperidine-3-carboxamide] — higher, 7.008
- C[C@]12C[C@@H]3C[C@](C)(C1)C[C@@](NC(=O)Nc1ccc(CN4CCCC(C(N)=O)C4)cc1F)(C3)C2 (stereo partly drawn) [D1, 1-(4-(3-((1r,3R,5S,7r)-3,5-Dimethyladamantan-1-yl)ureido)-3-fluorobenzyl)piperidine −3-carboxamide] — lower, 6.464
- CCC(=O)N1CCC(CC(=O)N2CCCN(Cc3ccc(NC(=O)N[C@@]45C[C@@H]6C[C@@](C)(C[C@@](C)(C6)C4)C5)c(F)c3)CC2)CC1 [I2, 1-((1r,3R,5S,7r)-3,5-Dimethyladamantan-1-yl)-3-(2-fluoro-4-((4-(2-(1-propionylpiperidin-4-yl)acetyl)-1,4-diazepan-1-yl)methyl)phenyl)urea] — lower, 5.623
- CCC(=O)N1CCCN(C(=O)C2CCCN(C(=O)c3ccc(NC(=O)N[C@@]45C[C@@H]6C[C@@](C)(C[C@@](C)(C6)C4)C5)c(F)c3)C2)CC1 (stereo partly drawn) [F2, 1-((1r,3R,5S,7r)-3,5-Dimethyladamantan-1-yl)-3-(2-fluoro-4-(3-(4-propionyl-1,4-diazepane-1-carbonyl)piperidine-1-carbonyl)phenyl)urea] — lower, 6.164
- C[C@]12C[C@@H]3C[C@](C)(C1)C[C@](NC(=O)Nc1ccc(C(=O)N4CCCC(C(=O)NCCO)C4)cc1F)(C3)C2 (stereo partly drawn) [B2, 1-(4-(3-((1r,3R,5S,7S)-3,5-dimethyladamantan-1-yl)ureido)-3-fluorobenzoyl)-N-(2-hydroxyethyl)piperidine-3-carboxamide] — higher, 7.069
- C[C@]12C[C@@H]3C[C@](C)(C1)C[C@@](NC(=O)Nc1ccc(CN4CCCC(C(=O)N5CCN(CCO)CC5)C4)cc1F)(C3)C2 (stereo partly drawn) [D9, 1-((1r,3R,5S,7r)-3,5-Dimethyladamantan-1-yl)-3-(2-fluoro-4-((3-(4-(2-hydroxyethyl)piperazine-1-carbonyl)piperidin-1-yl)methyl)phenyl)urea] — lower, 5.790
- C[C@]12C[C@@H]3C[C@](C)(C1)C[C@@](NC(=O)Nc1ccc(C(=O)N4CCCC(C(=O)O)C4)cc1F)(C3)C2 (stereo partly drawn) [A, 1-(4-(3-((1r,3R,5S,7r)-3,5-Dimethyladamantan-1-yl)ureido)-3-fluorobenzoyl)piperidine-3-carboxylic acid] — lower, 4.979
- CC(=O)N1CCC(CC(=O)N2CCCN(Cc3ccc(NC(=O)N[C@@]45C[C@@H]6C[C@@](C)(C[C@@](C)(C6)C4)C5)c(F)c3)CC2)CC1 [I1, 1-(4-((4-(2-(1-Acetylpiperidin-4-yl)acetyl)-1,4-diazepan-1-yl)methyl)-2-fluorophenyl)-3-((1r,3R,5S,7r)-3,5-dimethyladamantan-1-yl)urea] — lower, 6.119
- C[C@]12C[C@@H]3C[C@](C)(C1)C[C@@](NC(=O)Nc1ccc(CN4CCCC(C(=O)NCCO)C4)cc1F)(C3)C2 (stereo partly drawn) [D6, 1-(4-(3-((1r,3R,5S,7r)-3,5-Dimethyladamantan-1-yl)ureido)-3-fluorobenzyl)-N-(2-hydroxyethyl)piperidine-3-carboxamide] — lower, 6.145
- CC(CN(C)C)N1CCC(CC(=O)N2CCCN(C(=O)c3ccc(NC(=O)N[C@@]45C[C@@H]6C[C@@](C)(C[C@@](C)(C6)C4)C5)c(F)c3)CC2)CC1 (stereo partly drawn) [H4, 1-((1r,3R,5S,7r)-3,5-Dimethyladamantan-1-yl)-3-(4-(4-(2-(1-(1-(dimethylamino)propan-2-yl)piperidin-4-yl)acetyl)-1,4-diazepane-1-carbonyl)-2-fluorophenyl)urea] — lower, 3.920
- CC(O)CNC(=O)C1CCN(C(=O)c2ccc(NC(=O)N[C@@]34C[C@@H]5C[C@@](C)(C[C@@](C)(C5)C3)C4)c(F)c2)CC1 (stereo partly drawn) [A3, 1-(4-(3-((1r,3R,5S,7r)-3,5-Dimethyladamantan-1-yl)ureido)-3-fluorobenzoyl)-N-(2-hydroxypropyl)piperidine-4-carboxamide] — lower, 5.708
- CCN(CC)CCN1CCC(CC(=O)N2CCCN(Cc3ccc(NC(=O)N[C@@]45C[C@@H]6C[C@@](C)(C[C@@](C)(C6)C4)C5)c(F)c3)CC2)CC1 [I8, 1-(4-((4-(2-(1-(2-(Diethylamino)ethyl)piperidin-4-yl)acetyl)-1,4-diazepan-1-yl)methyl) −2-fluorophenyl)-3-((1r,3R,5S,7r)-3,5-dimethyladamantan-1-yl)urea] — lower, 3.910
- CC(C)(C)OC(=O)N1CCN(CCNC(=O)C2CCC(NC(=O)c3ccc(NC(=O)N[C@@]45C[C@@H]6C[C@@](C)(C[C@@](C)(C6)C4)C5)c(F)c3)CC2)CC1 (stereo partly drawn) [C1, Tert-butyl-4-(2-(4-(4-(3-((1r,3R,5S,7r)-3,5-dimethyladamantan-1-yl)ureido)-3-fluorobenzamido)cyclohexane-1-carboxamido)ethyl)piperazine-1-carboxylate] — lower, 2.272
- C=C(C)C(=O)N1CCC(CC(=O)N2CCCN(C(=O)c3ccc(NC(=O)N[C@@]45C[C@@H]6C[C@@](C)(C[C@@](C)(C6)C4)C5)cc3)CC2)CC1 [H3, 1-((1r,3R,5S,7r)-3,5-Dimethyladamantan-1-yl)-3-(4-(4-(2-(1-methacryloylpiperidin-4-yl)acetyl)-1,4-diazepane-1-carbonyl)phenyl)urea] — lower, 5.530
- C[C@]12C[C@@H]3C[C@](C)(C1)C[C@@](NC(=O)Nc1ccc(C(=O)NC4CCC(C(=O)NC(CO)(CO)CO)CC4)cc1F)(C3)C2 (stereo partly drawn) [C8, N-(4-((1,3-Dihydroxy-2-(hydroxymethyl)propan-2-yl)carbamoyl)cyclohexyl)-4-(3-((1r,3R,5S,7r)-3,5-dimethyladamantan-1-yl)ureido)-3-fluorobenzamide] — higher, 7.653
